Assay results taken from patent US20240415819A1, “MACROCYCLIC COMPOUNDS AS PROTEASOME SUBUNIT BETA TYPE-5 INHIBITORS” (Lead Discovery Center GmbH, priority 2021, published 2024).

Key:
[1] = tested on: A549 (human lung carcinoma cell line); experiment: Glo assay of A549 cells (Table 3; ProteasomeGlo plating scheme); type: cell-based; settings: Homo sapiens; A549 cells; read-out: PGLo A549
How it was run: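 Compound treatment lasts 105 minutes at 37° C. under 5% CO2. Suc-LLVY-Glo substrate premixed with detection reagent (60 min at room temperature) is then added directly to the cells, and luminescence after 10-15 min in the dark gives the IC50 in nM.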

[2] = tested on: hPMBC; experiment: Chymotrypsin-like ProteasomeGlo assay in hPBMC; type: cell-based; settings: Homo sapiens; read-out: Pglo hPBMC
How it was run: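 B cells isolated from human PBMC (buffy coats, density gradient, magnetic isolation). Cells treated with compound for 105 min at 37 °C, with staurosporine and DMSO included. Chymotrypsin-like proteasome activity read by luminescence with Suc-LLVY-Glo substrate to derive IC50.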

| SMILES | IC50 [1] [µM] | IC50 [2] [µM] |
| --- | --- | --- |
| Cc1ccc2cc1CNC(=O)[C@H](CCc1ccccc1)NC(=O)[C@@H](NC(=O)[C@H](C)c1ccccc1)CC(=O)N1CCCC(CCO2)C1 (stereo partly drawn) [Compound 80, (2R)-N-((9S,12S)-5^4-methyl-8,11,14-trioxo-9-phenethyl-4-oxa-7,10-diaza-1(3,1)-piperidina-5(1,3)-benzenacyclotetradecaphane-12-yl)-2-phenylpropanamide] | < 0.1 | < 0.1 |
| Cc1ccc2cc1CNC(=O)[C@H](CCc1ccccc1)NC(=O)[C@@H](NC(=O)C1CC(F)(F)CN1)CC(=O)N1CCCC(CCO2)C1 (stereo partly drawn) [Compound 135, (2S)-4,4-difluoro-N-((9S,12S)-5^4-methyl-8,11,14-trioxo-9-phenethyl-4-oxa-7,10-diaza-1(3,1)-piperidina-5(1,3)-benzenacyclotetradecaphane-12-yl)pyrrolidine-2-carboxamide] | < 0.1 | < 0.1 |
| COc1ccc(CC(=O)N[C@H]2CC(=O)N3CCCC(CCOc4ccc(C)c(c4)CNC(=O)[C@H](CCc4ccccc4)NC2=O)C3)cc1 (stereo partly drawn) [Compound 83, 2-(4-methoxyphenyl)-N-((9S,12S)-5^4-methyl-8,11,14-trioxo-9-phenethyl-4-oxa-7,10-diaza-1(3,1)-piperidina-5(1,3)-benzenacyclotetradecaphane-12-yl)acetamide] | < 0.1 | < 0.1 |
| Cc1ccc2cc1CNC(=O)[C@H](CCc1ccccc1)NC(=O)[C@@H](NC(=O)OCc1ccccc1)CCC(=O)N1CCCC(CCO2)C1 (stereo partly drawn) [Compound 199, benzyl ((9S,12S)-5^4-methyl-8,11,15-trioxo-9-phenethyl-4-oxa-7,10-diaza-1(3,1)-piperidina-5(1,3)-benzenacyclopentadecaphane-12-yl)carbamate] | < 0.1 | < 0.1 |
| Cc1ccc2cc1CNC(=O)[C@H](CCc1ccccc1)NC(=O)[C@@H](NC(=O)CN1CCOCC1)CC(=O)N1CCCC(CCO2)C1 (stereo partly drawn) [Compound 88, N-((9S,12S)-5^4-methyl-8,11,14-trioxo-9-phenethyl-4-oxa-7,10-diaza-1(3,1)-piperidina-5(1,3)-benzenacyclotetradecaphane-12-yl)-2-morpholinoacetamide] | < 0.1 | < 0.1 |
| Cc1nc2cc(CCC(=O)N[C@H]3CC(=O)N4CCCC(CCOc5ccc(C)c(c5)CNC(=O)[C@H](CCc5ccccc5)NC3=O)C4)ccc2[nH]1 (stereo partly drawn) [Compound 174, 3-(2-methyl-1H-benzo[d]imidazol-6-yl)-N-((9S,12S)-5^4-methyl-8,11,14-trioxo-9-phenethyl-4-oxa-7,10-diaza-1(3,1)-piperidina-5(1,3)-benzenacyclotetradecaphane-12-yl)propanamide] | < 0.1 | < 0.1 |
| Cc1ccc2cc1CNC(=O)[C@H](CCc1ccccc1)NC(=O)[C@@H](NC(=O)c1cc3cc(C(F)(F)F)ccc3n1C)CC(=O)N1CCCC(CCO2)C1 (stereo partly drawn) [Compound 87, 1-methyl-N-((9S,12S)-5^4-methyl-8,11,14-trioxo-9-phenethyl-4-oxa-7,10-diaza-1(3,1)-piperidina-5(1,3)-benzenacyclotetradecaphane-12-yl)-5-(trifluoromethyl)-1H-indole-2-carboxamide] | < 0.1 | < 0.1 |
| Cc1ccc2cc1CNC(=O)[C@H](CCc1ccccc1)NC(=O)[C@@H](NC(=O)CN1CCNCC1)CC(=O)N1CCCC(CCO2)C1 (stereo partly drawn) [Compound 126, N-((9S,12S)-5^4-methyl-8,11,14-trioxo-9-phenethyl-4-oxa-7,10-diaza-1(3,1)-piperidina-5(1,3)-benzenacyclotetradecaphane-12-yl)-2-(piperazin-1-yl)acetamide] | < 0.1 | < 0.1 |
| Cc1ccc2cc1CNC(=O)[C@H](CCc1ccccc1)NC(=O)[C@@H](NC(=O)C1(N)COC1)CC(=O)N1CCCC(CCO2)C1 (stereo partly drawn) [Compound 158, 3-amino-N-((9S,12S)-5^4-methyl-8,11,14-trioxo-9-phenethyl-4-oxa-7,10-diaza-1(3,1)-piperidina-5(1,3)-benzenacyclotetradecaphane-12-yl)oxetane-3-carboxamide] | < 0.1 | < 0.1 |
| Cc1ccc2cc1CNC(=O)[C@H](CCc1ccccc1)NC(=O)[C@@H](NC(=O)C(C)(C)C#N)CC(=O)N1CCCC(CCO2)C1 (stereo partly drawn) [Compound 294, 2-cyano-2-methyl-N-((9S,12S)-54-methyl-8,11,14-trioxo-9-phenethyl-4-oxa-7,10-diaza-1(3,1)-piperidina-5(1,3)-benzenacyclotetradecaphane-12-yl)propanamide] | < 0.1 | < 0.1 |
| C=CC(=O)N[C@H]1CC(=O)N2CCCC(CCOc3ccc(C)c(c3)CNC(=O)[C@H](CCc3ccccc3)NC1=O)C2 (stereo partly drawn) [Compound 181, N-((9S,12S)-5^4-methyl-8,11,14-trioxo-9-phenethyl-4-oxa-7,10-diaza-1(3,1)-piperidina-5(1,3)-benzenacyclotetradecaphane-12-yl)acrylamide] | < 0.1 | < 0.1 |
| COc1cccc(CC(=O)N[C@H]2CC(=O)N3CCCC(CCOc4ccc(C)c(c4)CNC(=O)[C@H](CCc4ccccc4)NC2=O)C3)c1 (stereo partly drawn) [Compound 85, 2-(3-methoxyphenyl)-N-((9S,12S)-5^4-methyl-8,11,14-trioxo-9-phenethyl-4-oxa-7,10-diaza-1(3,1)-piperidina-5(1,3)-benzenacyclotetradecaphane-12-yl)acetamide] | < 0.1 | < 0.1 |
| Cc1ccc2cc1CNC(=O)[C@H](CCc1ccccc1)NC(=O)[C@@H](NC(=O)CCc1ccc3[nH]ccc3c1)CC(=O)N1CCCC(CCO2)C1 (stereo partly drawn) [Compound 182, 3-(1H-indol-5-yl)-N-((9S,12S)-5^4-methyl-8,11,14-trioxo-9-phenethyl-4-oxa-7,10-diaza-1(3,1)-piperidina-5(1,3)-benzenacyclotetradecaphane-12-yl)propanamide] | < 0.1 | < 0.1 |
| Cc1ccc2cc1CNC(=O)C(c1cnn(C)c1)NC(=O)CCC(=O)N1CCCC(CCO2)C1 (stereo not shown) [Compound 116, 5^4-methyl-9-(1-methyl-1H-pyrazol-4-yl)-4-oxa-7,10-diaza-1(3,1)-piperidina-5(1,3)-benzenacyclotetradecaphane-8,11,14-trione] | > 5 | 0.5 to 1 |
| CC(=O)N[C@H]1CCCC(=O)N2CCOC(CCOc3ccc(C)c(c3)CNC(=O)[C@H](CCc3ccccc3)NC1=O)C2 (stereo partly drawn) [Compound 186, N-((9S,12S)-5^4-methyl-8,11,16-trioxo-9-phenethyl-4-oxa-7,10-diaza-1(2,4)-morpholina-5(1,3)-benzenacyclohexadecaphane-12-yl)acetamide] | 0.1 to 0.5 | 0.1 to 0.5 |
| Cc1ccc2cc1CNC(=O)[C@H](CCc1ccccc1)NC(=O)[C@@H](NC(=O)C1CCNCC1(F)F)CC(=O)N1CCCC(CCO2)C1 (stereo partly drawn) [Compound 152, 3,3-difluoro-N-((9S,12S)-5^4-methyl-8,11,14-trioxo-9-phenethyl-4-oxa-7,10-diaza-1(3,1)-piperidina-5(1,3)-benzenacyclotetradecaphane-12-yl)piperidine-4-carboxamide] | < 0.1 | < 0.1 |
| CC(=O)N[C@H]1CC(=O)N2CCCC(CCOc3ccc(C)c(c3)CNC(=O)C(CCc3cnccn3)NC1=O)C2 (stereo partly drawn) [Compound 564, N-((12S)-5^4-methyl-8,11,14-trioxo-9-(2-(pyrazin-2-yl)ethyl)-4-oxa-7,10-diaza-1(3,1)-piperidina-5(1,3)-benzenacyclotetradecaphane-12-yl)acetamide] | < 0.1 | < 0.1 |
